Species on record: Rattus norvegicus
Experiment: Open TG-GATES - Regimen: Single
Assay type: toxicity, organism-based, Sprague-Dawley
Set-up: regimen Single, gender Male, age 6 weeks
Details: in vivo, po, route gavage; for Bas / Eos / Fbg / Hb / Lym / MCH / MCHC / MCV / Mono / Neu / RBC / Ret / WBC / APTT: tissue Blood; for KIDNEY_L / KIDNEY_R / KIDNEY_TOTAL: tissue Kidney; for LIVER: tissue Liver; for ALP / ALT / AST / CRE / Ca / Cl / DBIL / GLC / IP / K / LDH / Na / PL / RALB / TBIL / TC / TG / TP / gamma-GTP: tissue Plasma
[1] = 75 mg/kg, 3 h, dose level Middle

O=C1CN(/N=C/c2ccc(-c3ccc([N+](=O)[O-])cc3)o2)C(O)=N1 [DANTROLENE]
Bas (25 mg/kg, 3 h, dose level Low): 0%
Eos (25 mg/kg, 3 h, dose level Low): 1%
Fbg (25 mg/kg, 3 h, dose level Low): 205.2 mg/dL
Hb (25 mg/kg, 3 h, dose level Low): 13.6 g/dL
Lym (25 mg/kg, 3 h, dose level Low): 74.4%
MCH (25 mg/kg, 3 h, dose level Low): 22.5 pg
MCHC (25 mg/kg, 3 h, dose level Low): 34.1%
MCV (25 mg/kg, 3 h, dose level Low): 65.9 fL
Mono (25 mg/kg, 3 h, dose level Low): 8.4%
Neu (25 mg/kg, 3 h, dose level Low): 16.2%
RBC (25 mg/kg, 3 h, dose level Low): 604.8 x10_4/ul
Ret (25 mg/kg, 3 h, dose level Low): 10.4%
WBC (25 mg/kg, 3 h, dose level Low): 99.1 x10_2/uL
KIDNEY_L (25 mg/kg, 3 h, dose level Low): 1 g
KIDNEY_R (25 mg/kg, 3 h, dose level Low): 1 g
KIDNEY_TOTAL (25 mg/kg, 3 h, dose level Low): 1.9 g
LIVER (25 mg/kg, 3 h, dose level Low): 9.5 g
ALP (25 mg/kg, 3 h, dose level Low): 1009.8 IU/L
ALT (25 mg/kg, 3 h, dose level Low): 38.4 IU/L
AST (25 mg/kg, 3 h, dose level Low): 69.2 IU/L
CRE (25 mg/kg, 3 h, dose level Low): 0.6 mg/dL
Ca (25 mg/kg, 3 h, dose level Low): 10.5 mg/dL
Cl (25 mg/kg, 3 h, dose level Low): 101.8 meq/L
DBIL (25 mg/kg, 3 h, dose level Low): 0.03 mg/dL
GLC (25 mg/kg, 3 h, dose level Low): 213 mg/dL
IP (25 mg/kg, 3 h, dose level Low): 10.8 mg/dL
K (25 mg/kg, 3 h, dose level Low): 4.8 meq/L
LDH (25 mg/kg, 3 h, dose level Low): 97.8 IU/L
Na (25 mg/kg, 3 h, dose level Low): 139.2 meq/L
PL (25 mg/kg, 3 h, dose level Low): 141.6 mg/dL
RALB (25 mg/kg, 3 h, dose level Low): 3.8 g/dL
TBIL (25 mg/kg, 3 h, dose level Low): 0.4 mg/dL
TC (25 mg/kg, 3 h, dose level Low): 83.4 mg/dL
TG (25 mg/kg, 3 h, dose level Low): 39.4 mg/dL
TP (25 mg/kg, 3 h, dose level Low): 5.6 g/dL
gamma-GTP (25 mg/kg, 3 h, dose level Low): 2.6 IU/L
TERMINAL_BW (25 mg/kg, 6 h, dose level Low): 191.8 g
APTT (25 mg/kg, 6 h, dose level Low): 16.9 s
Bas (25 mg/kg, 6 h, dose level Low): 0%
Eos (25 mg/kg, 6 h, dose level Low): 1.2%
Fbg (25 mg/kg, 6 h, dose level Low): 210.4 mg/dL
Hb (25 mg/kg, 6 h, dose level Low): 13.8 g/dL
Lym (25 mg/kg, 6 h, dose level Low): 77%
MCH (25 mg/kg, 6 h, dose level Low): 21.9 pg
MCHC (25 mg/kg, 6 h, dose level Low): 34.3%
MCV (25 mg/kg, 6 h, dose level Low): 64.1 fL
Mono (25 mg/kg, 6 h, dose level Low): 8%
Neu (25 mg/kg, 6 h, dose level Low): 14%
RBC (25 mg/kg, 6 h, dose level Low): 632.4 x10_4/ul
Ret (25 mg/kg, 6 h, dose level Low): 12.6%
WBC (25 mg/kg, 6 h, dose level Low): 89.5 x10_2/uL
KIDNEY_L (25 mg/kg, 6 h, dose level Low): 0.9 g
KIDNEY_R (25 mg/kg, 6 h, dose level Low): 0.9 g
KIDNEY_TOTAL (25 mg/kg, 6 h, dose level Low): 1.8 g
LIVER (25 mg/kg, 6 h, dose level Low): 8.7 g
ALP (25 mg/kg, 6 h, dose level Low): 698.6 IU/L
ALT (25 mg/kg, 6 h, dose level Low): 30.4 IU/L
AST (25 mg/kg, 6 h, dose level Low): 60.4 IU/L
CRE (25 mg/kg, 6 h, dose level Low): 0.5 mg/dL
Ca (25 mg/kg, 6 h, dose level Low): 10.3 mg/dL
Cl (25 mg/kg, 6 h, dose level Low): 103 meq/L
DBIL (25 mg/kg, 6 h, dose level Low): 0.07 mg/dL
GLC (25 mg/kg, 6 h, dose level Low): 188.2 mg/dL
IP (25 mg/kg, 6 h, dose level Low): 9.7 mg/dL
K (25 mg/kg, 6 h, dose level Low): 4.7 meq/L
LDH (25 mg/kg, 6 h, dose level Low): 100.8 IU/L
Na (25 mg/kg, 6 h, dose level Low): 139.2 meq/L
PL (25 mg/kg, 6 h, dose level Low): 141.6 mg/dL
RALB (25 mg/kg, 6 h, dose level Low): 3.7 g/dL
TBIL (25 mg/kg, 6 h, dose level Low): 0.4 mg/dL
TC (25 mg/kg, 6 h, dose level Low): 78.8 mg/dL
TG (25 mg/kg, 6 h, dose level Low): 44 mg/dL
TP (25 mg/kg, 6 h, dose level Low): 5.3 g/dL
gamma-GTP (25 mg/kg, 6 h, dose level Low): 2 IU/L
TERMINAL_BW (25 mg/kg, 9 h, dose level Low): 189.9 g
APTT (25 mg/kg, 9 h, dose level Low): 16.4 s
Bas (25 mg/kg, 9 h, dose level Low): 0%
Eos (25 mg/kg, 9 h, dose level Low): 0.6%
Fbg (25 mg/kg, 9 h, dose level Low): 209.8 mg/dL
Hb (25 mg/kg, 9 h, dose level Low): 13.9 g/dL
Lym (25 mg/kg, 9 h, dose level Low): 80.6%
MCH (25 mg/kg, 9 h, dose level Low): 21.6 pg
MCHC (25 mg/kg, 9 h, dose level Low): 33.1%
MCV (25 mg/kg, 9 h, dose level Low): 65.4 fL
Mono (25 mg/kg, 9 h, dose level Low): 5%
Neu (25 mg/kg, 9 h, dose level Low): 14%
RBC (25 mg/kg, 9 h, dose level Low): 644 x10_4/ul
Ret (25 mg/kg, 9 h, dose level Low): 10.9%
WBC (25 mg/kg, 9 h, dose level Low): 83 x10_2/uL
KIDNEY_L (25 mg/kg, 9 h, dose level Low): 0.9 g
KIDNEY_R (25 mg/kg, 9 h, dose level Low): 0.9 g
KIDNEY_TOTAL (25 mg/kg, 9 h, dose level Low): 1.8 g
LIVER (25 mg/kg, 9 h, dose level Low): 8.2 g
ALP (25 mg/kg, 9 h, dose level Low): 723.6 IU/L
ALT (25 mg/kg, 9 h, dose level Low): 22.2 IU/L
AST (25 mg/kg, 9 h, dose level Low): 49.4 IU/L
CRE (25 mg/kg, 9 h, dose level Low): 0.6 mg/dL
Ca (25 mg/kg, 9 h, dose level Low): 10.4 mg/dL
Cl (25 mg/kg, 9 h, dose level Low): 104.4 meq/L
DBIL (25 mg/kg, 9 h, dose level Low): 0.062 mg/dL
GLC (25 mg/kg, 9 h, dose level Low): 199.4 mg/dL
IP (25 mg/kg, 9 h, dose level Low): 10.1 mg/dL
K (25 mg/kg, 9 h, dose level Low): 5.1 meq/L
LDH (25 mg/kg, 9 h, dose level Low): 75.2 IU/L
Na (25 mg/kg, 9 h, dose level Low): 139 meq/L
PL (25 mg/kg, 9 h, dose level Low): 137.2 mg/dL
RALB (25 mg/kg, 9 h, dose level Low): 3.7 g/dL
TBIL (25 mg/kg, 9 h, dose level Low): 0.4 mg/dL
TC (25 mg/kg, 9 h, dose level Low): 69.8 mg/dL
TG (25 mg/kg, 9 h, dose level Low): 42.8 mg/dL
TP (25 mg/kg, 9 h, dose level Low): 5.5 g/dL
gamma-GTP (25 mg/kg, 9 h, dose level Low): 2 IU/L
TERMINAL_BW (25 mg/kg, 24 h, dose level Low): 208.5 g
APTT (25 mg/kg, 24 h, dose level Low): 16.6 s
Bas (25 mg/kg, 24 h, dose level Low): 0%
Eos (25 mg/kg, 24 h, dose level Low): 1%
Fbg (25 mg/kg, 24 h, dose level Low): 200.4 mg/dL
Hb (25 mg/kg, 24 h, dose level Low): 13.1 g/dL
Lym (25 mg/kg, 24 h, dose level Low): 81.2%
MCH (25 mg/kg, 24 h, dose level Low): 21.9 pg
MCHC (25 mg/kg, 24 h, dose level Low): 33.5%
MCV (25 mg/kg, 24 h, dose level Low): 65.4 fL
Mono (25 mg/kg, 24 h, dose level Low): 6.8%
RBC (25 mg/kg, 24 h, dose level Low): 600.4 x10_4/ul
Ret (25 mg/kg, 24 h, dose level Low): 11.4%
WBC (25 mg/kg, 24 h, dose level Low): 97.3 x10_2/uL
KIDNEY_L (25 mg/kg, 24 h, dose level Low): 1 g
KIDNEY_R (25 mg/kg, 24 h, dose level Low): 1 g
KIDNEY_TOTAL (25 mg/kg, 24 h, dose level Low): 2 g
LIVER (25 mg/kg, 24 h, dose level Low): 10.4 g
ALP (25 mg/kg, 24 h, dose level Low): 1049.2 IU/L
ALT (25 mg/kg, 24 h, dose level Low): 35.8 IU/L
AST (25 mg/kg, 24 h, dose level Low): 71.2 IU/L
CRE (25 mg/kg, 24 h, dose level Low): 0.5 mg/dL
Ca (25 mg/kg, 24 h, dose level Low): 11.1 mg/dL
Cl (25 mg/kg, 24 h, dose level Low): 105.4 meq/L
DBIL (25 mg/kg, 24 h, dose level Low): 0.012 mg/dL
GLC (25 mg/kg, 24 h, dose level Low): 198.2 mg/dL
IP (25 mg/kg, 24 h, dose level Low): 6.5 mg/dL
K (25 mg/kg, 24 h, dose level Low): 4.7 meq/L
Na (25 mg/kg, 24 h, dose level Low): 142 meq/L
PL (25 mg/kg, 24 h, dose level Low): 142.4 mg/dL
RALB (25 mg/kg, 24 h, dose level Low): 3.9 g/dL
TBIL (25 mg/kg, 24 h, dose level Low): 0.3 mg/dL
TC (25 mg/kg, 24 h, dose level Low): 77.8 mg/dL
TG (25 mg/kg, 24 h, dose level Low): 73.2 mg/dL
TP (25 mg/kg, 24 h, dose level Low): 5.6 g/dL
gamma-GTP (25 mg/kg, 24 h, dose level Low): 1.6 IU/L
TERMINAL_BW [1]: 194 g
APTT [1]: 16.9 s
